Source: ChEMBL document CHEMBL1811844, “Design, synthesis, and biological evaluation of triazolo-pyrimidine derivatives as novel inhibitors of hepatitis B virus surface antigen (HBsAg) secretion” (J Med Chem, 2011)

Assay: Cytotoxicity against human HepG2(2.2.15) cells by MTT assay
Type: cell-based

Cc1ccc(C2=CC(c3c(F)cccc3Cl)n3ncnc3N2)cc1C (stereo unspecified)
CC50: > 50 µM
